# Experimental data reported in patent US12063914B2, “DNA sequence that increases odorant receptor representation in the olfactory system” (Research Foundation of the City University of New York, priority 2015, dated 2024).
# Assays:
# M71 OR = target: T1, M71 OR (Mus musculus, UniProt Q60893); assay: Two-bottle discrimination behavioral avoidance task (odor detection threshold) with 24dMACP; type: in vivo
# T1 construct: the increase of OSNs expressing the M71 OR results in the coalescence of labeled axons; expressed in transfected cells; host or cells: olfactory sensory neurons of living transgenic mice (4•M71Cα, 5•M71Cα), made by pronuclear injection of the M71 minigene
# T1 sequence (Q60893 1-309): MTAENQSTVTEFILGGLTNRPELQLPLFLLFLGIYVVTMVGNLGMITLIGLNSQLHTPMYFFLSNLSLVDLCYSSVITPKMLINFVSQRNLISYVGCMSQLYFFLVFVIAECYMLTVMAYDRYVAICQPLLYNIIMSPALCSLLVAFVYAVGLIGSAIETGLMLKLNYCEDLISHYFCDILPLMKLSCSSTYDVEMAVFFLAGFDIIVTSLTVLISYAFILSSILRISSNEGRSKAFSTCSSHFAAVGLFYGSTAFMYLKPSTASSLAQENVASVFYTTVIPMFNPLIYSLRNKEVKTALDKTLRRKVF
# Experimental: Sensitivity studies performed in Wistar rat neonates and adults have shown that the highest sensitivity to an odor (lowest threshold) correlates with the highest OSN density in the MOE. […] Therefore, it was desirable to assess whether detection of the most robust M71 ligand is amplified in this M71 line. An avoidance task was used in which the odorant 24dMACP is added to drinking water and becomes an aversive stimulus associated with injection of Lithium Chloride (LiCl), a compound known to induce gastric malaise. After conditioning homozygous 4•M71Cα animals and their WT littermates to water containing a 10-4 dilution of 24dMACP, the animals are given the choice between plain water and water with decreasing concentrations of 24dMACP (10^−4, 10^−6, 5×10^−7 and 10^−7). Note that all tested animals are homozygous for M71G, so even WT have a functional M71 OR.
# The results are presented as a preference index (PI) for the odorized water for each group of animals which is calculated as the amount of the odorized water consumed divided by the total amount of liquid (odor and no-odor water) consumed over a 24 hr time period (FIG. 3A). A PI of 50% reflects no preference of the animal. […] When presented with 10^−4 and 10^−6 dilutions, both conditioned 4•M71Cα homo and WT animals show a clear aversion towards 24dMACP reflected through an average PI for 24dMACP of about 10%. However, when 24dMACP is delivered at 10^−7 all animals fail to detect the presence of the odor with an average PI of 53.41% for the WT (n=4) and 62.67% for the homozygous animals (n=8).
# To compare specific odorant sensitivity between the 5•M71Cα and the 4•M71Cα line, the 2-bottle discrimination behavioral task was performed with 24dMACP as described above (FIG. 3B). […] Even though the same but slightly more significant 0.3 log decrease in odorant detection threshold is observed in the 5•M71Cα line, it is important to mention that 5•M71Cα hemi animals were used which have about 1.6% of their OSNs expressing M71 (similar to the 4•M71Cα homo animals with about 2% M71 expressing OSNs).
# Olfactory behavior test: A two-bottle discrimination test was performed as previously described. Since the mice are tested for the ability to detect a single odor in drinking water at increasingly lower concentrations, this discrimination assay is also considered a detection threshold test. Mice 8 weeks old were individually housed and given food ad libitum but restricted access to saccharin-phthalic acid solution (2.1×10^−2 M sodium saccharin and 10^−3M phthalic acid pH 6.5) for 1 h twice a day for two days before the assay begins. This ensures mice would commence drinking the solution during the conditioning. On day 3 (conditioning day) mice are exposed to sodium saccharine phthalic acid (SSPA) solution with 1 dilution of odorized water for 10 minutes. Immediately after, they are injected with lithium chloride intraperitoneally (15 μl/g body weight of a 0.6 M solution) to induce the aversive malaise and lethargy state. After two hours mice are returned to their home cage and given access to two bottles of drinking water; they are given the choice between SSPA solution containing a 10^−4 dilution of the odor versus the non-odorized SSPA solution. During the following 3 days, every 24 hours, the location of the bottles is reversed and the concentration of the odorized solution is decreased to 10^−6, 10^−7 and 0.5×10^−6, respectively. Every day both bottles are weighed to determine the amount of liquid consumed. A preference index was calculated as the amount of odorized solution consumed divided by the total amount of water solution consumed for each mouse for every 24 hour test period at each odor concentration. Student's t test was performed to test statistical significance, assuming two-tailed distribution and two-sample unequal variance. Values are mean±SEM and are plotted on a LOG scale.
# M71 = target: T2, M71 (Mus musculus, UniProt Q60893); conditions: previous ex vivo data; liquid phase; cited from earlier work
# T2 construct: from ex vivo analysis of genetically defined M71 OSNs in gene-targeted mice; host or cells: dendritic knobs of M71-expressing olfactory sensory neurons from gene-targeted mice
# T2 sequence (Q60893 1-309): T1 sequence (Q60893 1-309)
smiles,measurement,setting,value
"CC(=O)c1ccc(C)cc1C [24dMACP, 2,4-dimethyl acetophenone]",average PI,"M71 OR; 5•M71Cα hemi group, dilution 5×10^−7",19.62%
same,decrease in odorant detection threshold,M71 OR; 5•M71Cα line vs WT (same as 4•M71Cα line),0.3 log
same,average PI,"M71 OR; WT group of the 5•M71Cα experiment, dilution 5×10^−7",55.32%
same,average PI,"M71 OR; conditioned 4•M71Cα homo and WT animals, 10^−4 and 10^−6 dilutions",about 10%
same,PI,"M71 OR; conditioned 4•M71Cα homozygous mutants, 5×10^−7 dilution",26.12%
same,average PI,"M71 OR; conditioned 4•M71Cα homozygous, 10^−7 dilution",62.67%
same,PI,"M71 OR; conditioned WT (littermates of 4•M71Cα), 5×10^−7 dilution",62.79%
same,PI,"M71 OR; conditioned WT, 10^−4 dilution",11.84%
same,average PI,"M71 OR; conditioned WT, 10^−7 dilution",53.41%
same,elicit a M71 response ex vivo,M71,did
